In one experiment the target is HCK (Homo sapiens, UniProt P08631). The experiment is described as follows: HCK kinase inhibition. It counts as biochemical.
HCK, sequence (P08631 whole entry): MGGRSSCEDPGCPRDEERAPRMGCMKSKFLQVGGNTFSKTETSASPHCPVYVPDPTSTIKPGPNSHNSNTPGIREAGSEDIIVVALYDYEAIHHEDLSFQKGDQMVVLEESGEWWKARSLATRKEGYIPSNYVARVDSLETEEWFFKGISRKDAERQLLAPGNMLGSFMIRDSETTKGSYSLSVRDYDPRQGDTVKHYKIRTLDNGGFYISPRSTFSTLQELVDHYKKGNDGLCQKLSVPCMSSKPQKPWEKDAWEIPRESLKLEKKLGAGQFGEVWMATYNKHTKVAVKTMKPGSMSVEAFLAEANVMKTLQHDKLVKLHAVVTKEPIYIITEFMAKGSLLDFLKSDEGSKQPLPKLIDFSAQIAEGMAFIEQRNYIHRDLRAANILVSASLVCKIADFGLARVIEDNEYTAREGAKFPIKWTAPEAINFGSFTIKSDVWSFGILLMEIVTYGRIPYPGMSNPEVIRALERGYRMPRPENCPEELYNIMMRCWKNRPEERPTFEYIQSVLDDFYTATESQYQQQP
For orientation: IC50 means the point on the concentration scale where inhibition reaches its midpoint. Lower therefore signals inhibition by little substance. Take `COc1cc(-c2cn([C@H]3CC[C@@H](N4CCn5c(nnc5C(C)C)C4)CC3)c3ncnc(N)c23)ccc1NC(=O)c1cc2ccccc2n1C` [Example 33, N-(4-(4-amino-7-((cis)-4-(3-isopropyl-5,6-dihydro[1,2,4]triazolo[4,3-a]pyrazin-7(8H)-yl)cyclohexyl)-7H-pyrrolo[2,3-d]pyrimidin-5-yl)-2-methoxyphenyl)-1-methyl-1H-indole-2-carboxamide]: half-maximal inhibition (IC50) was put at 7.7 nM. `COc1cc(-c2cn([C@H]3CC[C@H](N4CCn5c(nnc5C(C)C)C4)CC3)c3ncnc(N)c23)ccc1NC(=O)c1cc2ccccc2n1C` [Example 34, N-(4-(4-amino-7-((trans)-4-(3-isopropyl-5,6-dihydro[1,2,4]triazolo[4,3-a]pyrazin-7(8H)-yl)cyclohexyl)-7H-pyrrolo[2,3-d]pyrimidin-5-yl)-2-methoxyphenyl)-1-methyl-1H-indole-2-carboxamide] yielded an IC50 of 7.7 nM. Regarding `COc1cc(-c2cn([C@H]3CC[C@H](N4CCn5c(nnc5C(F)(F)F)C4)CC3)c3ncnc(N)c23)ccc1NC(=O)c1cc2ccccc2n1C` [Example 30, N-(4-(4-amino-7-((trans)-4-(3-(trifluoromethyl)-5,6-dihydro[1,2,4]triazolo[4,3-a]pyrazin-7(8H)-yl)cyclohexyl)-7H-pyrrolo[2,3-d]pyrimidin-5-yl)-2-methoxyphenyl)-1-methyl-1H-indole-2-carboxamide], the IC50 was 7.7 nM. That is a single-digit nanomolar value. Still for that read-out and setting: under `CCc1nnc2n1CCN([C@H]1CC[C@@H](n3cc(-c4ccc(NC(=O)c5cc6ccccc6n5C)c(OC)c4)c4c(N)ncnc43)CC1)C2` [Example 31, N-(4-(4-amino-7-((cis)-4-(3-ethyl-5,6-dihydro[1,2,4]triazolo[4,3-a]pyrazin-7(8H)-yl)cyclohexyl)-7H-pyrrolo[2,3-d]pyrimidin-5-yl)-2-methoxyphenyl)-1-methyl-1H-indole-2-carboxamide] stands 11 nM; under `CCc1nnc2n1CCN([C@H]1CC[C@H](n3cc(-c4ccc(NC(=O)c5cc6ccccc6n5C)c(OC)c4)c4c(N)ncnc43)CC1)C2` [Example 32, N-(4-(4-amino-7-((trans)-4-(3-ethyl-5,6-dihydro[1,2,4]triazolo[4,3-a]pyrazin-7(8H)-yl)cyclohexyl)-7H-pyrrolo[2,3-d]pyrimidin-5-yl)-2-methoxyphenyl)-1-methyl-1H-indole-2-carboxamide], 14 nM; under `COc1cc(-c2cn([C@H]3CC[C@@H](N4CCn5c(C)nnc5C4)CC3)c3ncnc(N)c23)ccc1NC(=O)c1cc2ccccc2n1C` [Example 16, N-(4-(4-amino-7-((cis)-4-(3-methyl-5,6-dihydro[1,2,4]triazolo[4,3-a]pyrazin-7(8H)-yl)cyclohexyl)-7H-pyrrolo[2,3-d]pyrimidin-5-yl)-2-methoxyphenyl)-1-methyl-1H-indole-2-carboxamidamide], 4.9 nM.

Another experiment addresses T1, FLT3-ITD (Homo sapiens, UniProt P36888, ITD).
T1 sequence (P36888 27-993): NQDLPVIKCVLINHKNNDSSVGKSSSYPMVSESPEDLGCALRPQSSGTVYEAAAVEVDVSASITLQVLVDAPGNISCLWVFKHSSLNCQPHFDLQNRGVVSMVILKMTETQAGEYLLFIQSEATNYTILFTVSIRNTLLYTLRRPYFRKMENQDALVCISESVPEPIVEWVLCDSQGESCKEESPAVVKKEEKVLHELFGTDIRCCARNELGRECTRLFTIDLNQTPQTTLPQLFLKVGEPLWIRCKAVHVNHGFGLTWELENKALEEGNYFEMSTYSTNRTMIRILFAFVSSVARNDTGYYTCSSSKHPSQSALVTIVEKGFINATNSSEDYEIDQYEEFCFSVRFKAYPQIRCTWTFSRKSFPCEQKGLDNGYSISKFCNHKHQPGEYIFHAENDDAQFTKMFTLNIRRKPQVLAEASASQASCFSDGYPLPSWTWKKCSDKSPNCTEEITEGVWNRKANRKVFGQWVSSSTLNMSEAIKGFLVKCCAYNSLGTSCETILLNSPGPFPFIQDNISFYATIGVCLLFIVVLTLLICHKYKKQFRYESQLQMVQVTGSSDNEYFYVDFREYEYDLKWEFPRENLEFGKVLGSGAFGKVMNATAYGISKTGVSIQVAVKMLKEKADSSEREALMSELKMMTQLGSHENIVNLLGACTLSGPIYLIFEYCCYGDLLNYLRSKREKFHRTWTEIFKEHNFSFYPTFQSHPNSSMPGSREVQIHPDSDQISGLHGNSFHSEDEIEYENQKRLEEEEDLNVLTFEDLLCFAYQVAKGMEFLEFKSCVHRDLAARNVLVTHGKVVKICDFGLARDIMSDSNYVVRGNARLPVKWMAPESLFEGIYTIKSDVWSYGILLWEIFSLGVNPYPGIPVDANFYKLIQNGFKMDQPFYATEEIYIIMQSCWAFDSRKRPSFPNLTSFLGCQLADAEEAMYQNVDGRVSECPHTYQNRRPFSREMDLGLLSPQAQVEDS
The experiment in a line: FLT3-ITD kinase inhibition. It is filed as biochemical.
Consider `NC(=O)CN[C@H]1CC[C@@H](n2cc(-c3ccc(Oc4ccccc4)cc3)c3c(N)ncnc32)CC1` [Example 10, 2-(((cis)-4-(4-Amino-5-(4-phenoxyphenyl)-7H-pyrrolo[2,3-d]pyrimidin-7-yl)cyclohexyl)amino)acetamide], for which the IC50 was found to be 23 nM. Same read-out and setting: under `Nc1ncnc2c1c(-c1ccc(Oc3ccccc3)cc1)cn2[C@H]1CC[C@H](N[C@H]2CCNC2=O)CC1` [Example 54, (S)-3-(((trans)-4-(4-amino-5-(4-phenoxyphenyl)-7H-pyrrolo[2,3-d]pyrimidin-7-yl)cyclohexyl)amino)pyrrolidin-2-one] stands 25 nM; under `Nc1ncnc2c1c(-c1ccc(Oc3ccccc3)cc1)cn2[C@H]1CC[C@@H](NCc2ccncc2)CC1` [Example 5, 5-(4-phenoxyphenyl)-7-((cis)-4-((pyridin-4-ylmethyl)amino)cyclohexyl)-7H-pyrrolo[2,3-d]pyrimidin-4-amine], 6.6 nM. For the molecule `NC(=O)CN[C@H]1CC[C@H](n2cc(-c3ccc(Oc4ccccc4)cc3)c3c(N)ncnc32)CC1` [Example 11, 2-(((trans)-4-(4-Amino-5-(4-phenoxyphenyl)-7H-pyrrolo[2,3-d]pyrimidin-7-yl)cyclohexyl)amino)acetamide], the IC50 was 23 nM.
